In test [1] the test system is human mesenchymal stem cells (BMMSC). The test can be described thus: Cell proliferation, CellTiter 96 (MTT). It counts as cell-based. The conditions noted are these: TGF-β1 10 ng/ml; stayed at a lower proliferation rate than the control groups. The procedure:
(§1) The cells were trypsinized and then counted using trypan blue. 60×10^3 or 15×10^3 mesenchymal stem cells were seeded in a 25 cm^2 cell culture bottle or in a 12-well plate. Each vessel was charged with an appropriate amount of standard medium (control group) or a medium which contained the joint or meniscus extract (of bovine origin) in a dilute solution of 1:25 or 1:50. Recombinant TGF-β1 protein (R&D Systems) with a concentration of 10 ng/ml was used for chondrocytic differentiation of the BMMSC as positive control. Cell supernatants were collected and stored at −80° C.
Investigations on the cell proliferation were carried out using “CellTiter 96 Non-Radio-active” (Promega). This is a method based on 3-(4,5-dimethylthiazol-2-yl)-2,5-diphenyltetrazolium bromide (MTT) which determines the property of metabolically active cells of converting a tetrazolium salt. For example, the conversion of pale yellow MTT by cellular dehydrogenases into the dark blue, water-insoluble formazan is proportional to the activity of the dehydrogenases and thus to the survival rate of the cells. The absorbance is measured at a wavelength of 595 nm. The cells were counted and seeded in a density of […] in a 96-well round-bottom plate. The cell proliferation was determined on day 1, 3, 7 and 14. […] The absorbance was measured at the wavelength of 595 nm with a reference wavelength of 655 nm.

In test [2] the test system is BMMSC. The experiment in a line: Quantification of chondroitin sulfate (Alcian blue). It counts as cell-based, human. The note with it: parallel addition of 10 ng/ml TGF-β1. The procedure: as §1
The cells were washed with the PBS and then incubated with Alcian blue stain (1% Alcian blue in 3% strength acetic acid) for 20 minutes. The cells were decolorized by washing three times with 3% strength acetic acid and washing once with water. To quantify the stain which has been taken up, the cells were solubilized by shaking in 1% strength SDS solution at room temperature for 30 minutes and then heating at 90° C. for one hour. The absorbance was detected at the wavelength of 595 nm.

The subject of test [3] is BMMSC. The experiment in a line: Real time RT-PCR of cartilage-specific differentiation markers (SOX9, Aggrecan). It counts as cell-based, human. The note with it: transcription level; treatment with TGF-β1. The method, then:
Total cellular ribonucleic acid (RNA) was extracted using “NucleoSpin RNA II” from Macherey-Nagel. 1 μg of the RNA was amplified using a “one-step RT-PCR kit” (ABgene, UK). Real time (RT) PCR primers specific for collagen type I, SOX9, Aggrecan and glyceraldehyde-3-phosphate dehydrogenase (GAPDH) were used. Amplification of the so-called housekeeping gene GAPDH was used to verify the quality of the RNA and ensure uniform loading of resolving gels with the samples. A real time reverse transcription PCR was carried out using a LightCycler (Roche Diagnostic). The RT-PCR conditions included an RT step of 20 minutes at 61° C. to produce single-stranded cDNA from mRNA, followed by an inactivation of reverse transcriptase and denaturation at 95° C. for 30 seconds. 40 amplification cycles of one second at 95° C., of 15 seconds at 58° C. and of 13 seconds at 72° C. were carried out. Finally, a cooling step of 30 seconds at 40° C. was carried out.
(Real-time PCR tracks product formation cycle by cycle.)

Test [4] deals with BMMSC. The experiment in a line: Aggrecan immunofluorescence. It counts as cell-based, human. The conditions noted are these: day 14; recombinant TGF-β1 only. The method, then: The cells were seeded in a density of 15×10^3 in a 12-well plate. 14 days after the treatment with the extracts, the cells were washed with PBS and then fixed with ice-cold 70% strength ethanol for at least 18 hours. The cells were then blocked in 3% strength goat serum (normal goat serum NGS) for one hour, and thereafter mouse anti-Aggrecan antibodies (Chemicon) were used with a concentration of 1 μg/ml and incubated at 4° C. for at least 18 hours. The primary antibodies were then removed, the cells were washed three times with PBS and subsequently incubated with anti-mouse FITC-conjugated IgM (Molecular Probes) in a ratio of 1:1000 for one hour. The secondary antibodies were removed and the cells were washed three times with the PBS. A negative control was carried out with the secondary antibody. After the incubation, the cells were washed, put on supports and inspected using a fluorescence microscope.

For “TGF-β1: Recombinant TGF-β1 protein (R&D Systems), 10 ng/ml, positive control for chondrocytic differentiation”, in test [1], the cell proliferation result is given as “graduated increase”. Besides, the chondroitin sulfate result in test [2] is “increase in chondroitin sulfate”. The mRNA for aggrecan result in test [3] was “significantly increased”. In addition, the “number of aggrecan-positive cells compared with the untreated control samples” value in test [4] was “larger numbers”.

The record behind these values is patent publication US20100003754A1, “METHODS OF DIFFERENTIATING STEM CELLS” (Ossacur AG, priority 2006, published 2010).
